PubChem BioAssay AID2060511 (Molecular Pharmacology Branch, DTP, NCI, 2025)

Tested on: 422866-222-R5-J1-PDC spheroids with HUVEC/MSC, viability
Assay: Anticancer human tumor 422866-222-R5-J1-PDC patient-derived pancreatic adenocarcinoma cell line growth inhibition [GQUAD]
Conditions: for IC50: curve of first compound; for viability, T/C: stronger effect = lower value; active = viability on the fitted dose curve at most 10% of control; inactive = the rest
Outline: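 Viability of tumor cells grown as complex spheroids with endothelial and stromal cells, exposed to drug combinations. Top concentration at or near clinical Cmax (else 10 microM), diluted in half-log increments.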

[1] = second compound 0.0316 µM, first compound 0.0316 µM
[2] = second compound 0.0316 µM, first compound 0.1 µM
[3] = second compound 0.0316 µM, first compound 0.316 µM
[4] = second compound 0.0316 µM, first compound 1 µM
[5] = second compound 0.0316 µM, first compound 3.16 µM
[6] = second compound 0.0316 µM, first compound 10 µM
[7] = second compound 0.1 µM, first compound 0.0316 µM
[8] = second compound 0.1 µM, first compound 0.1 µM
[9] = second compound 0.1 µM, first compound 0.316 µM
[10] = second compound 0.1 µM, first compound 1 µM
[11] = second compound 0.1 µM, first compound 3.16 µM
[12] = second compound 0.1 µM, first compound 10 µM
[13] = second compound 0.316 µM, first compound 0.0316 µM
[14] = second compound 0.316 µM, first compound 0.1 µM
[15] = second compound 0.316 µM, first compound 0.316 µM
[16] = second compound 0.316 µM, first compound 1 µM
[17] = second compound 0.316 µM, first compound 3.16 µM
[18] = second compound 0.316 µM, first compound 10 µM
[19] = second compound 1 µM, first compound 0.0316 µM
[20] = second compound 1 µM, first compound 0.1 µM
[21] = second compound 1 µM, first compound 0.316 µM
[22] = second compound 1 µM, first compound 1 µM
[23] = second compound 1 µM, first compound 3.16 µM
[24] = second compound 1 µM, first compound 10 µM
[25] = second compound 3.16 µM, first compound 0.0316 µM
[26] = second compound 3.16 µM, first compound 0.1 µM
[27] = second compound 3.16 µM, first compound 0.316 µM
[28] = second compound 3.16 µM, first compound 1 µM
[29] = second compound 3.16 µM, first compound 3.16 µM
[30] = second compound 3.16 µM, first compound 10 µM
[31] = second compound 10 µM, first compound 0.0316 µM
[32] = second compound 10 µM, first compound 0.1 µM
[33] = second compound 10 µM, first compound 0.316 µM
[34] = second compound 10 µM, first compound 1 µM
[35] = second compound 10 µM, first compound 3.16 µM
[36] = second compound 10 µM, first compound 10 µM
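Note: spheroids exposed to compounds for seven days before reading.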
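Throughout, for viability, T/C: percent viability relative to DMSO vehicle control taken as 100%.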

O=C(c1cc(Cc2n[nH]c(=O)c3ccccc23)ccc1F)N1CCN(C(=O)C2CC2)CC1 + Cc1[nH]c2ccc(F)cc2c1-c1nc2c3cccnc3c3ncccc3c2[nH]1
inactive: viability, T/C [1] 99% | viability, T/C [2] 87.9% | viability, T/C [3] 91% | viability, T/C [4] 77% | viability, T/C [5] 83.1% | viability, T/C [6] 65.6% | viability, T/C [7] 102% | viability, T/C [8] 85.1% | viability, T/C [9] 86% | viability, T/C [10] 89.2% | viability, T/C [11] 93% | viability, T/C [12] 81.4% | viability, T/C [13] 104% | viability, T/C [14] 83.9% | viability, T/C [15] 90.6% | viability, T/C [16] 72.8% | viability, T/C [17] 87.4% | viability, T/C [18] 79.7% | viability, T/C [19] 89.9% | viability, T/C [20] 100% | viability, T/C [21] 89.2% | viability, T/C [22] 88.7% | viability, T/C [23] 94.7% | viability, T/C [24] 83.6% | viability, T/C [25] 79.4% | viability, T/C [26] 83.5% | viability, T/C [27] 75.4% | viability, T/C [28] 100% | viability, T/C [29] 81.7% | viability, T/C [30] 79.6% | viability, T/C [31] 66.6% | viability, T/C [32] 70.8% | viability, T/C [33] 81.2% | viability, T/C [34] 64.2% | viability, T/C [35] 85.9% | viability, T/C [36] 77.7%
> 10 µM: IC50 (second compound 0.0316 µM) | IC50 (second compound 0.1 µM) | IC50 (second compound 0.316 µM) | IC50 (second compound 1 µM) | IC50 (second compound 3.16 µM) | IC50 (second compound 10 µM)

COc1ccc([C@@H](O)c2cc(-c3ncnc4cc(N5CCOCC5)ccc34)c(F)cc2Cl)nn1 + Cc1[nH]c2ccc(F)cc2c1-c1nc2c3cccnc3c3ncccc3c2[nH]1
2.63 µM: IC50 (second compound 3.16 µM)
3.27 µM: IC50 (second compound 0.316 µM)
2.13 µM: IC50 (second compound 10 µM)
4.47 µM: IC50 (second compound 1 µM)
4.2 µM: IC50 (second compound 0.0316 µM)
inactive: viability, T/C [1] 81.2% | viability, T/C [2] 79.2% | viability, T/C [3] 72.2% | viability, T/C [4] 68% | viability, T/C [5] 54.7% | viability, T/C [6] 35.8% | viability, T/C [7] 90.6% | viability, T/C [8] 78.8% | viability, T/C [9] 68.6% | viability, T/C [10] 60.2% | viability, T/C [11] 62.5% | viability, T/C [12] 42.1% | viability, T/C [13] 95.4% | viability, T/C [14] 82.4% | viability, T/C [15] 74.9% | viability, T/C [16] 60.6% | viability, T/C [17] 51.3% | viability, T/C [18] 38.8% | viability, T/C [19] 75.6% | viability, T/C [20] 81.8% | viability, T/C [21] 66.9% | viability, T/C [22] 62.8% | viability, T/C [23] 57.5% | viability, T/C [24] 38.5% | viability, T/C [25] 80.7% | viability, T/C [26] 73% | viability, T/C [27] 65.4% | viability, T/C [28] 64.8% | viability, T/C [29] 45.3% | viability, T/C [30] 34.6% | viability, T/C [31] 64.2% | viability, T/C [32] 69% | viability, T/C [33] 78.5% | viability, T/C [34] 57.1% | viability, T/C [35] 46.2% | viability, T/C [36] 33.9%
5.78 µM: IC50 (second compound 0.1 µM)

Cc1cccc(N(C)C(=O)C2C(O)CCN2c2nc(C)cc(C(F)(F)F)c2C#N)c1 (stereo unspecified) + Cc1cnc(CNC(=O)c2c(=O)c3ccc(N4CCCN(C)CC4)nc3n3c2sc2ccccc23)cn1
> 10 µM: IC50 (second compound 0.0316 µM) | IC50 (second compound 0.1 µM) | IC50 (second compound 0.316 µM) | IC50 (second compound 1 µM) | IC50 (second compound 3.16 µM) | IC50 (second compound 10 µM)
inactive: viability, T/C [1] 95% | viability, T/C [2] 82.2% | viability, T/C [3] 83.9% | viability, T/C [4] 92.8% | viability, T/C [5] 90.5% | viability, T/C [6] 88.7% | viability, T/C [7] 95.9% | viability, T/C [8] 86.3% | viability, T/C [9] 86.8% | viability, T/C [10] 83.7% | viability, T/C [11] 102% | viability, T/C [12] 90.9% | viability, T/C [13] 85.8% | viability, T/C [14] 90.5% | viability, T/C [15] 98.9% | viability, T/C [16] 83.7% | viability, T/C [17] 85.3% | viability, T/C [18] 85.5% | viability, T/C [19] 82% | viability, T/C [20] 85.8% | viability, T/C [21] 86.1% | viability, T/C [22] 79.7% | viability, T/C [23] 94.1% | viability, T/C [24] 91.6% | viability, T/C [25] 73.7% | viability, T/C [26] 80% | viability, T/C [27] 86.1% | viability, T/C [28] 79.7% | viability, T/C [29] 96.5% | viability, T/C [30] 78.8% | viability, T/C [31] 75.3% | viability, T/C [32] 75.6% | viability, T/C [33] 75% | viability, T/C [34] 86.5% | viability, T/C [35] 89% | viability, T/C [36] 77.7%
